Where a SMILES comes first, the peptide text is derived from it. The star is where a group is joined. NH(4-Me-phenyl) = Cc1ccc(N*)cc1; AMC = Cc1cc(=O)oc2cc(N*)ccc12; Cbz = O=C(OCc1ccccc1)*; X1 = Cc1ccc(S*)cc1; X2 = Cc1ccc(O*)cc1
Columns and labels:
[1] = Chemical stability in aqueous buffers by HPLC-MS (no enzyme); assay type: physicochemical; conditions: for chemical stability at other pH (in words): basic and acid media
Experimental: Figure 2 Solid‐phase peptide synthesis (SPPS) of the sequence Ac‐IGNR‐OH (compound 1) and corresponding analogues containing spacers with different connectivities. The synthesis of compounds 1–4 is described in the Supporting Information. […] TEXT PRINTED IN THE PICTURE: 2 (ester): pH 4: < 5%; pH 7: < 5%; pH 10: < 5% | 3 (thioester): pH 4: 70%; pH 7: < 5%; pH 10: < 5% | 4 (amide): pH 4: > 95%; pH 7: > 95%; pH 10: > 95%
First, we synthesized a large batch (>400 mg) of Ac‐IGNR‐OH using standard protocols for the solid‐phase synthesis of fluorescent peptides[20] in polystyrene resin derivatized with a 2‐chlorotritylchloride linker (PS‐CTC). Next, we coupled the tetrapeptide Ac‐IGNR‐OH (compound 1, Figure 2) to different aryl groups to generate the isosteric ester, thioester and amide analogues (compounds 2, 3 and 4 respectively, Figure 2). After isolation of all compounds by semi‐preparative HPLC with purities >95 %, we analyzed their chemical stability in aqueous media in the absence of hGzmA. […] We also tested their chemical integrity at different pH values because GzmA can be stored in slightly acidic cytotoxic granules inside CTLs.[21]

NK-92 cells = assay: Live-cell confocal microscopy of NK-92 cells; assay type: cell-based, human; conditions: 3,4-dichloroisocoumarin 5 μM, 2 h prior to labeling with compound 9 (5 μM, 1 h)
Experimental: Figure S9. Brightfield and fluorescence confocal microscopy merged images of live NK-92 cells upon incubation with compound 9. Representative microscopy images from 3 independent experiments of live NK-92 cells upon incubation with […]
dichloroisocoumarin (5 µM) was used as a GzmA inhibitor for 2 h prior to labeling.
(§1) 5.0) prior to the enzyme assays.
(§2) All the tubes were incubated
(§3) NK- 92 cell inhibition and imaging. […]
(§4) Microsystems) and qualitatively analysed using Fiji.

[2] = tested on: active GzmA secreted by NK-92 cells; assay: Detection of active GzmA in supernatants of stimulated NK-92 cells; assay type: cell-based, human; conditions: supernatants of stimulated NK-92 cells + compound 9
Source text: Encouraged by the high reactivity of compound 9, we evaluated its potential application to detect active GzmA secreted by immune cells. NK cell‐based therapies are regarded as potential anticancer treatments due to their ability to secrete granzymes to the extracellular space and cause cytotoxicity in cancer cells.[24] […] To test the utility of compound 9 to measure active GzmA in cell supernatants, we performed degranulation assays in human NK‐92 cells (e.g., a patient‐derived cell line that expresses higher levels of GzmA than healthy NK cells)[25] and also tested GzmA‐negative cells (e.g., HaCaT keratinocytes, Figure S8). NK‐92 cells were stimulated with […] and ionomycin (Figure 5).[26] Cell supernatants were collected and incubated with compound 9 for 1 h, followed by spectroscopic measurements. […] Previous reports indicate that granzyme activity can be detected inside NK‐92 cells[[11b]] and that granzymes can be found within activated immune cells due to intracellular granular leakage,[27] even though granzyme activity is known to be reduced in acidic granules. To study this observation, we performed Z‐stack live‐cell confocal microscopy in NK‐92 cells after incubation with compound 9.
as §1, §2, §3, §4

hGzmA = target: T1, hGzmA (Homo sapiens, UniProt P12544); assay: Inhibition by 3,4-dichloroisocoumarin of the fluorescence of compound 9 with hGzmA; assay type: biochemical; conditions: 3,4-dichloroisocoumarin 100 μM, compound 9 20 μM, hGzmA 20 nM, Tris buffer (pH 8)
T1 construct: in the absence or presence of active recombinant hGzmA
T1 sequence (P12544 29-262): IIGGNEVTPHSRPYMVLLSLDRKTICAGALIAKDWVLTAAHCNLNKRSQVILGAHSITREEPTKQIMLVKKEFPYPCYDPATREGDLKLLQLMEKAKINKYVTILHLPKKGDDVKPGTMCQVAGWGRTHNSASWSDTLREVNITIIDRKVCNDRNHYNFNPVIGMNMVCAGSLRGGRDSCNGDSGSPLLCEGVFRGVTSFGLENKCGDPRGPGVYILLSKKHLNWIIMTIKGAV

[3] = Emission wavelength / spectral properties; assay type: physicochemical; conditions: comparison of compound 9 and Z-FR-AMC
[4] = Tris buffer (pH 7.4), absence of hGzmA, HPLC-MS
[5] = pH 4, aqueous buffer, 2 h at 37 °C, HPLC-MS
[6] = pH 7, aqueous buffer, 2 h at 37 °C, HPLC-MS
[7] = pH 10, aqueous buffer, 2 h at 37 °C, HPLC-MS

| Compound | chemical stability (in words) [1, 4] | stability (% by HPLC-MS) [1, 5] [%] | stability (% by HPLC-MS) [1, 6] [%] | stability (% by HPLC-MS) [1, 7] [%] | chemical stability at other pH (in words) ([1]; HPLC-MS, 2 h at 37 °C) | further results |
| --- | --- | --- | --- | --- | --- | --- |
| CC[C@H](C)[C@H](NC(C)=O)C(=O)NCC(=O)N[C@@H](CC(N)=O)C(=O)N[C@@H](CCCNC(=N)N)C(=O)Oc1ccc(C)cc1 [compound 2] (Ac-IGNR-X2) | completely hydrolyzed | < 5 | < 5 | < 5 | – | – |
| CC[C@H](C)[C@H](NC(C)=O)C(=O)NCC(=O)N[C@@H](CC(N)=O)C(=O)N[C@@H](CCCNC(=N)N)C(=O)Nc1ccc(C)cc1 [compound 4] (Ac-IGNR-{NH(4-Me-phenyl)}) | fully stable | > 95 | > 95 | > 95 | stable in basic and acid media | purity after incubation ([1]; Tris buffer (pH 7.4), absence of hGzmA): > 95% |
| O=c1oc(Cl)c(Cl)c2ccccc12 [3,4‐dichloroisocoumarin] | – | – | – | – | – | effect of inhibitor on intracellular fluorescence (in words) (NK-92 cells): reduced; effect of inhibitor on supernatant fluorescence (in words) [2]: blocked; decrease of the fluorescence signal (hGzmA): > 90% |
| CC[C@H](C)[C@H](NC(C)=O)C(=O)NCC(=O)N[C@@H](CC(N)=O)C(=O)N[C@@H](CCCNC(=N)N)C(=O)Sc1ccc(C)cc1 [compound 3] (Ac-IGNR-X1) | completely hydrolyzed | – | < 5 | < 5 | more stable than the carboxylic ester analogue 2 at acidic pH | remaining at 2 h [1, 5]: 70% |
| Cbz-Phe-Arg-{AMC} | – | – | – | – | – | emission wavelength [3]: 445 nm |

Reference: paper PMC10108010, “Fluorogenic Granzyme A Substrates Enable Real‐Time Imaging of Adaptive Immune Cell Activity” (Angewandte Chemie (International Ed. in English), 2023)
